# From US10517934B2, “Compositions and methods for the treatment of photoaging and other conditions” (PRO TRANSIT NANOTHERAPY LLC, priority 2014, dated 2019)
# Tested on: UV-induced free radicals in porcine ear skin
# Assay: Skin antioxidative protection/retention (SAP/SAR) by ESR spectroscopy in porcine ear skin exposed to UV
# Design: species or system pig
# Source text: Freshly excised porcine ear skin is close to human skin that is routinely used as a model for testing the protective efficacy of several topically applied antioxidants against UV-induced free radicals. Porcine skin biopsies obtained from local slaughterhouse (pig skin, 6 month old animals, external lobe of the ears) were used for the experiments. The skin was washed, the subdermal fat was removed and cut into 2×2 cm pieces before the application of test samples on the epidermal layer.
# The skin has an intrinsic antioxidant protection potential (enzymatic and non-enzymatic), which can be measured by electron spin resonance (ESR) spectroscopy. If an active test sample applied to the stratum corneum penetrates to deep layers of skin, it increases the skin antioxidative protection (SAP). Labeling skin epidermis and dermis (by soaking skin on dermis side) with a semi-stable test radical (TEMPO, 2,2,6,6-tetramethyl piperidine-N-oxyl) that reacts with free radicals produces signal intensities detected by ESR spectroscopy, which can be quantitatively expressed as percent SAP values to determine the antioxidant activity in skin (epidermis and dermis).
# Using SAP values from ESR spectroscopy, skin antioxidative retention (SAR) potential of a test cosmetic formulation can be effectively measured using appropriate radical probes. SAR value indicates the antioxidative activity of the skin after free radical damage (UV radiation), which evaluates the protective effectiveness of topically applied antioxidants/free radical scavengers. In addition to the assessment of antioxidative activity in skin, the SAR value also validates the penetration of the topically applied antioxidants. The SAR values are expressed in percent and are calculated using the following formula: SAR [%]=(SAPUV,Product−SAPUV,Placebo)/(SAPPlacebo−SAPUV,Placebo).
# The study was conducted blinded and the operator was supplied with formulations that were coded. Pro-NP™, control NPs, or placebo (mixed at 2% w/w in anhydrous lotion) were applied on the skin (2 mg/cm^2) and allowed to penetrate for definite times (10 minutes, 30 minutes, 4 hours or 18 hours). The skin was then exposed to UV radiation (0.6 MED; Minimal Erythema Dose) to induce free radicals that lead to a decrease in the SAP values up to 59% of the initial value (without UV treatment) of the untreated skin. Irradiation source: UV solar simulator 300 W Oriel (Newport). The irradiances as integrated value over the spectral ranges were E (UVB=280-320)=23.5 W/m^2 and E (UVA=320-400 nm)=180 W/m^2. The maintenance of the SAP values after UV exposure due to the test product is expressed by the SAR values.
substance,measurement,setting,value
Tocopherol [1% Tocopherol],SAR (%) 10 mins,"2% w/w in anhydrous lotion, 2 mg/cm^2, 10 mins penetration, UV 0.6 MED",20%
same,SAR (%) 30 mins,"30 mins penetration, UV 0.6 MED",6%
same,SAR (%) 4 hrs,"4 hrs penetration, UV 0.6 MED",0%
same,SAR (%) 18 hrs,"18 hrs penetration, UV 0.6 MED",0%
same,protection after UV,after 10 minutes application,24%
same,protection after UV,after 30 minutes,very weak protection
same,increase of the SAP values before UV irradiation with respect to untreated skin,without UV irradiation,29%
